{"source": "paper PMC3884839", "about": "“Pharmacokinetics and pharmacodynamics utilizing unbound target tissue exposure as part of a disposition-based rationale for lead optimization of benzoxaboroles in the treatment of Stage 2 Human African Trypanosomiasis” (Parasitology, 2013)", "key": {"[1]": {"system": "MDCKII-hMDR1 monolayer (Pgp efflux transporter)", "assay": "MDCKII-hMDR1 monolayer permeability and Pgp-mediated efflux", "format": "in vitro ADME", "method": "The propensity of test compounds to cross the BBB was examined using an in vitro MDCKII-hMDR1 monolayer assay (Polli et al. [2001]). In summary, MDCKII-hMDR1 cells (Netherlands Cancer Institute, Amsterdam, the Netherlands) were seeded at a density of 3×10^5 cells per well onto microporous polycarbonate membranes in 12 well Costar Transwell plates (Corning Inc., Lowell, MA). The cells were incubated for 3 days during which time they formed confluent monolayers. Trans-epithelial resistance (TEER) was measured for each insert to ensure the integrity of the monolayer (acceptable TEER >160 Ω cm^2). The permeability and susceptibility for Pgp-mediated efflux was evaluated by adding each compound at a concentration of 3 μM, in the presence or absence of 2 μM GF120918 (a potent Pgp inhibitor), to the apical compartment. Competency of the Pgp efflux transporter was confirmed by assay of propranolol (non-substrate) and amprenavir (substrate). Cell monolayers were incubated in triplicate with shaking (160 rpm) at 37 °C in a 5% CO2-enriched humidified atmosphere for 1 h. Samples were removed from the apical and basolateral compartments after incubation and assayed for test compound concentrations by LC-MSMS. Values for mass balance, PappA−B, PappA−B+GF918, and absorption quotient (AQ) were calculated for each compound (Troutman and Thakker, [2003]; Thiel-Demby et al. [2004]). Acceptance criterion for mass balance was 70–120%."}, "[2]": {"assay": "Unbound brain exposure (AUC0-24) in uninfected mice after once daily oral SCYX-7158", "format": "in vivo, mouse", "conditions": "12·5 mg kg^−1 once daily", "method": "The CNS disposition and pharmacokinetics of the benzoxaboroles were evaluated in infected and uninfected mice following oral administration. In vivo phases of single-dose rodent PK studies were performed at Vivisource (Waltham, MA) following Institutional Animal Care and Use Committee (IACUC) review in an Association for Assessment and Accreditation of Laboratory Animal Care International (AAALAC)-approved facility. Studies in Trypanosoma brucei brucei (TREU 667 strain) infected mice, or uninfected satellite animals, were performed after IACUC review at Pace University (NewYork, NY).\nMale CD-1 or female Swiss Webster mice (approximately 25 g) were administered test compounds by oral gavage either once (QD) or twice per day (Q12 h) with doses ranging between 6 and 100 mg kg^−1 as described below. All compounds were formulated as an in situ sodium salt in 2% (v/v) ethanol, 5% (m/v) dextrose, to yield typically clear colourless solutions that were administered at 4 mL kg^−1. Blood samples for pharmacokinetic studies were collected into polypropylene tubes containing K2EDTA anticoagulant and stored on wet ice until centrifuged and processed to plasma. Plasma was stored at −80 °C. Blood samples from mice were collected via cardiac puncture under terminal anaesthesia. Rodents were euthanized in a CO2 chamber before collection of terminal blood or tissue samples. Brain tissues were blotted dry and stored at approximately −80 °C.\nPharmacokinetic studies were performed in CD-1 mice to establish AUC0–24 following single and 7×once daily oral doses of 6·25, 12·5, 25, 50 and 100 mg kg^−1 SCYX-7158 (Jacobs et al. [2011]). […] Values for unbound AUC0–24 in brain were calculated using the single and steady-state exposure data (non-parametric super-positioning indicated steady-state was mostly attained on day 2 so day 7 data were employed for days 2–7 rather than modelled data for days 2–6) and compared to the target unbound AUC from the in vitro reversibility studies (Fig. 9)."}, "L929 mammalian cell line": {"system": "L929 mammalian cell line", "assay": "L929 mammalian cell cytotoxicity / selectivity", "format": "cell-based"}, "T. b. brucei (TREU 667)": {"system": "T. b. brucei (TREU 667)", "assay": "Murine model of Stage 2 (CNS) HAT", "format": "in vivo, mouse", "method": "The efficacy of benzoxaboroles was evaluated in a murine model of Stage 2 (CNS) HAT (Nare et al. [2010]; Jacobs et al. [2011]). In summary, mice (n = 10 per group) were infected by bolus i.p. injection of 1×10^4 T. b. brucei (TREU 667) parasites. A single bolus i.p. dose (10 mg kg^-1) of berenil (Sigma-Aldrich, St. Louis, MO) was administered on day 4 as a positive treatment control for haemolymphatic-stage infection. Infection of the remaining animals proceeded for 21 days to establish a CNS infection before treatment with either a single dose of berenil (as above) or test compounds by the oral route either once or twice daily over 7 days at the doses indicated below. Animals were checked at least weekly for parasitaemia and were immediately removed from cages and euthanized upon recrudescence. Animals were considered cured if they were […] for at least 180 days after treatment."}, "[3]": {"conditions": "6·25 mg kg^−1 day^−1 oral for 7 days"}}}
{"molecule": "CC1(C)OB(O)c2cc(NC(=O)c3ccc(F)cc3C(F)(F)F)ccc21", "note": "[SCYX-7158]", "values": [{"measurement": "P-gp classification", "setting": "[1]", "value": "Non-substrate"}, {"measurement": "Mass balance A–B+GF918", "setting": "[1]; 3 μM, with GF918", "value": 75, "unit": "%"}, {"measurement": "Mass balance A–B", "setting": "[1]; 3 μM, without GF918", "value": 79, "unit": "%"}, {"measurement": "time unbound concentration in brain tissue exceeded IC50u on each day", "setting": "[2]", "value": 10, "unit": "h"}, {"measurement": "time unbound concentration in brain tissue exceeded MICu on each day", "setting": "[2]", "value": 4, "unit": "h"}, {"measurement": "unbound AUC0–24 as percentage of the target MICu AUC", "setting": "[2]", "value": "approximately 50%"}, {"measurement": "IC50", "setting": "L929 mammalian cell line; Mus musculus, L929 mammalian cell line, cytotoxicity", "value": 50, "unit": "µg/mL"}, {"measurement": "Selectivity", "setting": "L929 mammalian cell line; parasite vs L929", "value": "⩾138"}, {"measurement": "cure outcome", "setting": "T. b. brucei (TREU 667); 50 mg kg^−1, single oral dose", "value": "No animals were cured"}, {"measurement": "cure rate", "setting": "T. b. brucei (TREU 667); 50 mg kg^−1 oral, ⩾3 days of dosing", "value": 100, "unit": "%"}, {"measurement": "day of recrudescence of parasitaemia after infection", "setting": "T. b. brucei (TREU 667); [3]", "value": "~35", "unit": "days"}, {"measurement": "treatment outcome", "setting": "T. b. brucei (TREU 667); [3]", "value": "cleared of haemolymphatic T. b. brucei but demonstrated recrudescence of parasitaemia"}, {"measurement": "cure rate", "setting": "T. b. brucei (TREU 667); 12·5 mg kg^−1 oral once daily for 7 days", "value": 80, "unit": "%"}, {"measurement": "cure outcome", "setting": "T. b. brucei (TREU 667); ⩾25 mg kg^−1 day^−1 oral for 7 days", "value": "complete cures"}]}
